Patent publication US20020169128A1, “Erythropoietin ameliorates chemotherapy-induced toxicity in vivo” (priority 2001, published 2002)

Experiments:
[1] = tested on: C57B16 female mice; experiment: Pulmonary function (Penh) by whole body plethysmography after graded methacholine challenge in mice treated with EPO and/or bleomycin; assay type: in vivo; conditions: treated twice a week for two weeks, i.p., FIG. 1
Description: C57B16 female mice between 7 and 12 weeks old weighing approximately 20 grams were treated with varying doses of EPO alone and in combination with bleomycin. Animals were treated twice a week with placebo, EPO alone (5-40 μg/mouse, i.p.), bleomycin alone (0.25-0.75 μg/mouse, i.p.), or EPO and bleomycin in combination. […] At these time points, pulmonary function was measured using a full body plethysmograph (Buxco, Niskayuna, N.Y.). This is a noninvasive method utilizing a clear plastic animal chamber fitted with two pneumotachs and a transducer which interface with a computer. Pulmonary resistance and dynamic compliance is evaluated by an analyzer which measures flow and pressure readings at equivalent lung volumes during inspiration and expiration (“Iso-Volumetric Method”). Artifacts from animal movement or atypical breaths (e.g. from “sniffing”) are ignored by computer analysis using parameters that can be adjusted as appropriate for the tidal volume and inspiratory time of the individual animal. The method of whole body plethysmography has been studied and found to be a valid index of pulmonary function in the mouse (Hamelmann et al., Am. J. Respir. Crit. Care Med. 156)3 Pt1) 776-75 (1997). […] A similar pattern of the Penh values was observed when pulmonary functions were performed at four weeks of treatment (see FIG. 2).

[2] = doses of up to 1,500 Units/kg for three to four weeks; cited from earlier work

| Substance | pulmonary function (Penh), EPO given in the absence of bleomycin ([1]; graded methacholine challenge) | toxic effects due to EPO itself [2] | worsening in Penh values compared with control animals ([1]; graded (0 to 48 mg/ml) methacholine challenge) [fold] |
| --- | --- | --- | --- |
| erythropoietin [EPO] | slight enhancement of pulmonary function | without toxic effects | – |
| bleomycin [reference compound] | – | – | 2.6 |
